Source: US9289412B2, “Role of limonoid compounds as neuroprotective agents” (The Johns Hopkins University, priority 2006, dated 2016)
Where two headings read alike, the source gives them in different places.

Test system: rat mixed hippocampal cultures
Test: 3-NP neurotoxicity assay, MTT viability, rat mixed hippocampal cultures
Type: cell-based
Conditions: 1 h preincubation, test concentration (10 μM); for inhibition at 10 µM: Rattus norvegicus
Experimental: For example, a cell viability assay can be used in a preliminary screen on a large series of compounds each of which is tested at a fixed concentration. In some embodiments, mixed hippocampal cell cultures are prepared as described in, e.g., Haughey et al. (1999), J Neurochem, 73(4):1363-1374, and Haughey et al (2004), J Neurosci, 24(1):257-268. Subsequently, the cultures are pretreated for one hour in the presence of a candidate neuroprotective agent and then incubated with a cytotoxic agent for about 18 hours. Examples of cytotoxic agents include, but are not limited to, oxidative stressors (e.g., 3-nitropropionic acid (3-NP) or H2O2), excitatory amino acids (e.g., kainate), or neurotoxic proteins (e.g., Hiv Tat, or Aβ peptides). […] The level of protection (“percent protection”) provided by the test compound at a given test concentration in vitro can be expressed as: […]
A variety of methods for determining cell viability may be used. In some embodiments, cell viability is assessed based on the “MTT” assay method described in Mosmann (1983), J Immunol Methods, 65(1-2):55-63, or a variant thereof. This assay is based on the ability of a mitochondrial dehydrogenase enzyme from viable cells to cleave the tetrazolium rings of the pale yellow MTT and form dark blue formazan crystals, which are trapped in cells and readily quantified by ELISA spectrophotometry.
We sought to evaluate the protective efficacy of a number of modified terpenoid compounds against the against many different neurotoxins, ranging from the chemotoxic 6-OHDA, NMDA, 3-nitropropionic acid (3-NP), and viral proteins such as Tat and gp120. Thus, we established an in vitro neuroprotection assay using rat mixed hippocampal cultures, in which we evaluated the protective efficacy of neuroprotective compounds disclosed herein. The oxidative stressor 3-NP was used to elicit toxicity in the rat hippocampal cultures to mimic the oxidative damage, reactive oxygen species production and ensuing neurodegeneration resulting from HIV infection. Another measure of neurotoxicity which results from HIV infection was evaluated by exposure of the hippocampal cultures to HIV-1 Tat (Li et al (2005), Neurotox Res, 8(1-2): 119-134).
Rat mixed hippocamal neuronal cultures were generated from freshly dissected rat hippocampi (embryonic day 18) in neurobasal media containing 5% fetal bovine serum and 2% B27 supplement. The cells were plated into 96 well plates at a density of 4×10^5 cells/mL and routinely used on days 11-14 following culturing. Cell viability was assessed with MTT [3-(4,5-dimethylthiazol-2-yl)-2,5-diphenyltetrazolium bromide] assay. The MTT assay is based on the ability of a mitochondrial dehydrogenase enzyme from viable cells to cleave the tetrazolium rings of the pale yellow MTT and form dark blue formazan crystals. See Mosmann (1983), J Immunol Methods, 65(1-2):55-63. These crystals are largely impermeable to cell membranes, and thus accumulate within healthy cells. The resultant formazan precipitates are solubilized with DMSO and read on a multiwell scanning spectrophotometer (ELISA reader). The number of surviving cells is directly proportional to the level of the formazan product created.
Mixed hippocampal cultures were incubated with 3-NP (0.5-10 mM) for 18 hours and then assessed for viability using an MTT assay.
Cultures were preincubated with GPI 1046 or Resveratrol for one hour prior to an 18 hour exposure to 3 mM 3-NP. […] The same neuroprotective compounds were evaluated for efficacy against HIV-1 Tat protein toxicity using the same 1 hour preincubation protocol.

[1] = Table 2, vs 3 mM 3-NP 18 h, read-out: % Protection
[2] = Table 3, 3 mM 3-NP 18 h, read-out: % Protection vs 3-NP

Row | Compound | inhibition at 10 µM [1] | % Protection (Table 2, vs 3 mM 3-NP 18 h) | inhibition at 10 µM [2] | also measured
1 | CC(=O)O[C@@H]1CC2C(C)(C)C(=O)C3OC3[C@]2(C)C2CC[C@@]3(C)C(=CC(=O)O[C@@H]3c3ccoc3)[C@@]21C (stereo partly drawn) [1 (2)alpha- EPOXYDEOXYDIHYDRO- GEDUNIN, 1 (2)alpha-EPOXYDEOXYDIHYDROGEDUNIN] | 14% |  |  | 
2 | CC1(C)C(=O)[C@@H]2O[C@@H]2[C@@]2(C)C1C[C@@H](O)[C@]1(C)C2CC[C@@]2(C)[C@H](c3ccoc3)OC(=O)C3OC321 (stereo partly drawn) [1,2alpha- EPOXYDEACET[…], 1,2alpha-EPOXYDEACETOXYDIHYDROGEDUNIN] |  | 25% |  | 
3 | CC1(C)C2CC(=O)[C@]3(C)C(CC[C@@]4(C)[C@H](c5ccoc5)OC(=O)C5OC543)[C@@]2(C)[C@@H](O)C[C@H]1O (stereo partly drawn) [1,3-DIDEACETYL-7-DEACETOXY-7-OXOKHIVORIN] |  | 15% | 15% | 
4 | CC(=O)O[C@@H]1CC2C(C)(C)[C@H](O)C[C@H](O)[C@]2(C)C2CC[C@]3(C)[C@@H](c4ccoc4)OC(=O)[C@H]4O[C@]43[C@@]21C (stereo partly drawn) [1,3-DIDEACETYLKHIVORIN] | 129% |  |  | 
5 | CC1(C)C2CC(=O)[C@]3(C)C(CC[C@@]4(C)[C@H](c5ccoc5)OC(=O)[C@H]5O[C@]543)[C@@]2(C)C(=O)C[C@H]1O (stereo partly drawn) [1,7-DIDEACETOXY-1,7-DIOXO-3-DEACETYLKHIVORIN] |  | 15% | 15% | 
6 | CC(=O)OC1CC2C(C)(C)CCC(=O)[C@]2(C)C2CC[C@@]3(C)[C@H](c4ccoc4)OC(=O)C4OC43[C@]12C (stereo partly drawn) [2,3-DIHYDROISOGEDUNIN] |  | 44% |  | 
7 | CC(=O)O[C@H]1C[C@@H](O)C(C)(C)[C@@H]2C[C@@H](OC(C)=O)[C@]3(C)[C@H](CC[C@@]4(C)[C@@H](c5ccoc5)OC(=O)[C@H]5O[C@@]534)[C@@]12C [3-DEACETYLKHIVORIN] |  |  |  | % Protection vs 3-NP (Table 3, 3 mM 3-NP 18 h): 7%
8 | CC(=O)O[C@H]1CC[C@@]2(C)C(C[C@@H](OC(C)=O)[C@@]3(C)C4=CC(=O)O[C@@H](c5ccoc5)[C@]4(C)CCC23)C1(C)C (stereo partly drawn) [3-DEOXO-3beta-ACETOXYDEOXYDIHYDROGEDUNIN] | 56% |  |  | 
9 | CC(=O)O[C@@H]1CC2C(C)(C)[C@H](O)C=C[C@]2(C)C2CC[C@]3(C)C(=CC(=O)O[C@H]3c3ccoc3)[C@@]21C (stereo partly drawn) [3-alpha- HYDROXYDEOXYGEDININ, 3-alpha-HYDROXYDEOXYGEDININ] |  | 28% |  | 
10 | CC(=O)O[C@@H]1CC[C@@]2(C)C(C[C@@H](OC(C)=O)[C@@]3(C)C4=CC(=O)O[C@@H](c5ccoc5)[C@]4(C)CCC23)C1(C)C (stereo partly drawn) [3alpha- ACETOXYDIHYDRODEOXY- GEDUNIN, 3alpha-ACETOXYDIHYDRODEOXYGEDUNIN] | 151% |  |  | 
11 | C=C1C2CC[C@]3(C)[C@@H](c4ccoc4)OC(=O)CC13O[C@H]1CC(O)C(C)(C)C(CC(=O)OC)[C@@]21C (stereo partly drawn) [3alpha-HYDROXY-3-DEOXYANGOLENSIC ACID METHYL ESTER] | 35% |  |  | 
12 | CC(=O)O[C@H]1CC[C@@]2(C)C(C[C@H](OC(C)=O)[C@@]3(C)C4=CC(=O)OC(c5ccoc5)[C@]4(C)CCC23)C1(C)C (stereo partly drawn) [3beta,7beta-DIACETOXYDEOXODEACETOXYDEOXYDIHYDROGEDUNIN] | 61% |  |  | 
13 | CC(=O)O[C@H]1CC[C@]2(C)[C@H]3CC[C@@]4(C)[C@H](c5ccoc5)OC(=O)[C@H]5O[C@]54[C@]3(C)[C@H](OC(C)=O)C[C@H]2C1(C)C [3beta- ACETOXYDEOXODIHYDRO- GEDUNIN, 3beta-ACETOXYDEOXODIHYDROGEDUNIN] | 39% |  | 39% | 
14 | CC(=O)OC1CC2C(C)(C)[C@@H](O)CC[C@]2(C)C2CC[C@]3(C)[C@H](c4ccoc4)OC(=O)[C@H]4O[C@]43[C@]12C (stereo partly drawn) [3beta- HYDROXYDEOXODIHYDRO- GEDUNIN, 3beta-HYDROXYDEOXODIHYDROGEDUNIN] | 82% |  |  | 
15 | C=C1C2CC[C@@]3(C)[C@H](c4ccoc4)OC(=O)C[C@]13O[C@H]1C[C@@H](OC(C)=O)C(C)(C)[C@H](CC(=O)OC)[C@@]21C [3beta-ACETOXYDEOXYANGOLENSIC ACID, METHYL ESTER] | 128% |  |  | 
16 | CC1(C)C2CC(=O)[C@]3(C)C(CC[C@@]4(C)[C@H](c5ccoc5)OC(=O)[C@H]5O[C@]543)[C@@]2(C)C=C[C@@H]1O (stereo partly drawn) [3beta-HYDROXYDEOXYDESACETOXY-7-OXOGEDUNIN] | 30% |  |  | 

Row | Compound | inhibition at 10 µM [1] | % Protection (Table 2, vs 3 mM 3-NP 18 h) | inhibition at 10 µM [2] | also measured
17 | C=C1C2CC[C@@]3(C)[C@H](c4ccoc4)OC(=O)C[C@]13O[C@H]1CC(=O)C(C)(C)[C@H](C(O)C(=O)OC)[C@@]21C (stereo partly drawn) [6-HYDROXYANGOLENSIC ACID METHYL ESTER] | 26% |  | 26% | 
18 | CC1(C)C(=O)C=C[C@@]2(C)C1CC(=O)[C@@]1(C)C3=CC(=O)O[C@@H](c4ccoc4)[C@]3(C)CCC12 (stereo partly drawn) [7-DEACETOXY-7- OXODEOXYGEDUNIN, 7-DEACETOXY-7-OXODEOXYGEDUNIN] | 24% |  |  | 
19 | CC(=O)O[C@H]1C[C@@H](OC(C)=O)C(C)(C)C2CC(=O)[C@]3(C)C(CC[C@@]4(C)[C@H](c5ccoc5)OC(=O)[C@H]5O[C@]543)[C@]21C (stereo partly drawn) [7-DEACETOXY-7- OXOKHIVORIN, 7-DEACETOXY-7-OXOKHIVORIN] | 36% |  | 36% | 
20 | COC(=O)[C@@H]1OC(=O)C2OC23[C@@]1(C)CCC1[C@]2(C)C(CC(=O)[C@]13C)C(C)(C)[C@H](OC(C)=O)C[C@@H]2OC(C)=O (stereo partly drawn) [7-DEACETOXY-7-OXOKHIVORINIC ACID, METHYL ESTER] |  | 42% |  | 
21 | CC(=O)O[C@H]1C[C@@H](OC(C)=O)C(C)(C)C2C[C@@H](O)[C@]3(C)C(CC[C@@]4(C)[C@H](c5ccoc5)OC(=O)[C@H]5O[C@]543)[C@]21C (stereo partly drawn) [7-DEACETYLKHIVORIN] |  | 32% | 32% | 
22 | CC(=O)O[C@H]1C[C@@H](OC(C)=O)C(C)(C)C2C[C@H](OC(C)=O)[C@]3(C)C(CC[C@@]4(C)[C@H](c5ccoc5)OC(=O)[C@H]5O[C@]543)[C@]21C (stereo partly drawn) [7-EPIKHIVORIN] | 65% |  |  | 
23 | COC(=O)[C@@H]1OC(=O)C2OC23[C@@]1(C)CCC1[C@]2(C)C(C[C@H](O)[C@]13C)C(C)(C)[C@H](OC(C)=O)C[C@@H]2OC(C)=O (stereo partly drawn) [7beta-HYDROXY-7-DESACETOXYKHIVORINIC ACID, METHYL ESTER] |  | 84% |  | 
24 | COC(=O)C[C@H]1C(C)(C)C2(O)OC34CC2C(=O)[C@]1(C)C3CC[C@]1(C)C4=CC(=O)O[C@H]1c1ccoc1 (stereo partly drawn) [8beta-HYDROXYCARAPIN, 3,8-HEMIACETAL] |  |  |  | % Protection vs 3-NP (Table 3, 3 mM 3-NP 18 h): 9%
25 | COC(=O)C[C@H]1C2(C)CC34OC5(C)O[C@@]6([C@H](OC(C)=O)C(OC(C)=O)[C@]7(C)C(/C(=C(/O)C(C)C)C(=O)O[C@H]7c7ccoc7)[C@@]6(O5)[C@H](OC(C)=O)[C@@]3(O)C2OC(=O)C(C)C)[C@]14C (stereo partly drawn) [BUSSEIN] |  |  | 18% | 
26 | COC(=O)C[C@H]1C(C)(C)C(=O)[C@@H]2CC3=C(CC[C@]4(C)C3=CC(=O)O[C@H]4c3ccoc3)[C@@]1(C)C2=O [CARAPIN-8(9)-ENE] |  |  |  | % Protection vs 3-NP (Table 3, 3 mM 3-NP 18 h): 38%
27 | COC(=O)C[C@H]1C(C)(C)C(=O)[C@@H]2CC3C4=CC(=O)O[C@@H](c5ccoc5)[C@]4(C)CC[C@@H]3[C@@]1(C)C2=O (stereo partly drawn) [CARAPIN] |  |  | 18% | 
28 | CC1(C)C(=O)C=C[C@@]2(C)C1CC(=O)[C@]1(C)C2CC[C@@]2(C)[C@H](c3ccoc3)OC(=O)[C@H]3O[C@]321 (stereo partly drawn) [DEACETOXY-7-OXOGEDUNIN] | 38% |  | 38% | 
29 | CC1(C)C(=O)C=C[C@@]2(C)C1C[C@@H](O)[C@]1(C)C2CC[C@@]2(C)[C@H](c3ccoc3)OC(=O)[C@H]3O[C@]321 (stereo partly drawn) [DEACETYLGEDUNIN] |  | 19% | 19% | 
30 | CC(=O)OC1CC2C(C)(C)CCC[C@]2(C)C2CC[C@]3(C)C(=CC(=O)O[C@H]3c3ccoc3)[C@]12C (stereo partly drawn) [DEOXODEOXYDIHYDRO- GEDUNIN, DEOXODEOXYDIHYDROGEDUNIN] |  | 77% |  | 
31 | CC(=O)O[C@@H]1CC2C(C)(C)CCC[C@]2(C)C2CC[C@@]3(C)[C@H](c4ccoc4)OC(=O)C4OC43[C@@]21C (stereo partly drawn) [DEOXODIHYDROGEDUNIN] | 101% |  |  | 
